Data published in ChEMBL document CHEMBL3885881, “DrugMatrix”.

Species on record: Rattus norvegicus
Experiment: DrugMatrix - Regimen: Daily Repeat
Assay type: toxicity, organism-based, Sprague-Dawley
Set-up: regimen Daily Repeat, gender Male, age 6-8 weeks
Settings: in vivo, ip, 10 mg/kg, route intraperitoneal, dose level High, vehicle 100 % SALINE; for ALANINE AMINOTRANSFERASE / ALBUMIN / ALKALINE PHOSPHATASE / ASPARTATE AMINOTRANSFERASE / BLOOD UREA NITROGEN / CHLORIDE / CHOLESTEROL / CREATINE PHOSPHOKINASE / CREATININE / GLUCOSE / LACTATE DEHYDROGENASE / LIPASE / PHOSPHORUS / SODIUM / TOTAL BILIRUBIN / TOTAL PROTEIN / URIC ACID / POTASSIUM: tissue Plasma
[1] = 120 h, tissue Blood, time 5 day

## COBALTOUS CHLORIDE
[1]
  ABSOLUTE EOSINOPHIL: 74 cells/µL
  ABSOLUTE LYMPHOCYTE: 8680 cells/µL
  ABSOLUTE MONOCYTE: 210 cells/µL
  ABSOLUTE SEGMENTED NEUTROPHIL: 1660 cells/µL
  BASOPHIL: 0.44%
  EOSINOPHIL: 0.68%
  ERYTHROCYTE COUNT: 7.83 x10E6/uL
  HEMATOCRIT: 48.96%
  HEMOGLOBIN: 15.82 G/DL
  LEUKOCYTE COUNT: 10.72 x10E3/uL
  LYMPHOCYTE: 81.38%
  MEAN CORPUSCULAR HEMOGLOBIN: 20.22 pg
  MEAN CORPUSCULAR HEMOGLOBIN CONCENTRATION: 32.34 G/DL
  MEAN CORPUSCULAR VOLUME: 62.58 fL
  MONOCYTE: 1.94%
  NEUTROPHIL: 15.1%
  PLATELET COUNT: 1648.2 x10E3/uL
120 h, time 5 day
  ALANINE AMINOTRANSFERASE: 27.2 u/L
  ALBUMIN: 3.7 G/DL
  ALKALINE PHOSPHATASE: 212.6 u/L
  ASPARTATE AMINOTRANSFERASE: 86.6 u/L
  BLOOD UREA NITROGEN: 17.2 mg/dL
  CHLORIDE: 110.4 MEQ/L
  CHOLESTEROL: 49.8 mg/dL
  CREATINE PHOSPHOKINASE: 277.6 u/L
  CREATININE: 0.56 mg/dL
  GLUCOSE: 125.8 mg/dL
  LACTATE DEHYDROGENASE: 60.2 u/L
  LIPASE: 31.2 u/L
  PHOSPHORUS: 11.88 mg/dL
  SODIUM: 148.6 MEQ/L
  TOTAL BILIRUBIN: 0.26 mg/dL
  TOTAL PROTEIN: 6.26 G/DL
  URIC ACID: 1.38 mg/dL
[…], tissue Blood, time 14 day
  ABSOLUTE BASOPHIL: 72 cells/µL
  ABSOLUTE EOSINOPHIL: 76 cells/µL
  ABSOLUTE LYMPHOCYTE: 8200 cells/µL
  ABSOLUTE MONOCYTE: 260 cells/µL
  ABSOLUTE SEGMENTED NEUTROPHIL: 1320 cells/µL
  BASOPHIL: 0.66%
  EOSINOPHIL: 0.8%
  ERYTHROCYTE COUNT: 8.58 x10E6/uL
  HEMATOCRIT: 54.6%
  HEMOGLOBIN: 17.66 G/DL
  LEUKOCYTE COUNT: 9.97 x10E3/uL
  LYMPHOCYTE: 81.92%
  MEAN CORPUSCULAR HEMOGLOBIN: 20.62 pg
  MEAN CORPUSCULAR HEMOGLOBIN CONCENTRATION: 32.34 G/DL
  MONOCYTE: 2.54%
  NEUTROPHIL: 13.72%
  PLATELET COUNT: 1213.6 x10E3/uL
[…], tissue Blood, time 28 day
  ABSOLUTE BASOPHIL: 170 cells/µL
  ABSOLUTE EOSINOPHIL: 160 cells/µL
  ABSOLUTE LYMPHOCYTE: 8960 cells/µL
  ABSOLUTE MONOCYTE: 240 cells/µL
  ABSOLUTE SEGMENTED NEUTROPHIL: 2230 cells/µL
  BASOPHIL: 1.38%
  EOSINOPHIL: 1.23%
  ERYTHROCYTE COUNT: 9.9 x10E6/uL
  HEMATOCRIT: 61.68%
  HEMOGLOBIN: 19.49 G/DL
  LEUKOCYTE COUNT: 11.78 x10E3/uL
  LYMPHOCYTE: 76.07%
  MEAN CORPUSCULAR HEMOGLOBIN: 19.7 pg
  MEAN CORPUSCULAR HEMOGLOBIN CONCENTRATION: 31.56 G/DL
  MONOCYTE: 2.09%
  NEUTROPHIL: 19.02%
  PLATELET COUNT: 1119.7 x10E3/uL
[…], time 14 day
  ALANINE AMINOTRANSFERASE: 29 u/L
  ALBUMIN: 3.74 G/DL
  ALKALINE PHOSPHATASE: 189.6 u/L
  ASPARTATE AMINOTRANSFERASE: 91.8 u/L
  BLOOD UREA NITROGEN: 14.6 mg/dL
  CHLORIDE: 112 MEQ/L
  CHOLESTEROL: 48.8 mg/dL
  CREATINE PHOSPHOKINASE: 182.6 u/L
  CREATININE: 0.52 mg/dL
  GLUCOSE: 124.8 mg/dL
  LACTATE DEHYDROGENASE: 103.2 u/L
  LIPASE: 22 u/L
  POTASSIUM: 6.24 MEQ/L
  SODIUM: 149.8 MEQ/L
  TOTAL BILIRUBIN: 0.26 mg/dL
  TOTAL PROTEIN: 6.68 G/DL
  URIC ACID: 1.26 mg/dL
[…], time 28 day
  ALANINE AMINOTRANSFERASE: 38.1 u/L
  ALBUMIN: 3.64 G/DL
  ALKALINE PHOSPHATASE: 126.6 u/L
  ASPARTATE AMINOTRANSFERASE: 117.5 u/L
  BLOOD UREA NITROGEN: 15.5 mg/dL
  CHLORIDE: 110.7 MEQ/L
  CHOLESTEROL: 27.7 mg/dL
  CREATINE PHOSPHOKINASE: 386.4 u/L
  CREATININE: 0.7 mg/dL
  GLUCOSE: 88.3 mg/dL
  LACTATE DEHYDROGENASE: 116.6 u/L
  LIPASE: 2.8 u/L
  PHOSPHORUS: 10.92 mg/dL
  POTASSIUM: 6.81 MEQ/L
  SODIUM: 152.5 MEQ/L
  TOTAL BILIRUBIN: 0.33 mg/dL
  TOTAL PROTEIN: 6.59 G/DL
  URIC ACID: 1.31 mg/dL
